Measured values: patent US10738024B2, “Compounds for treatment of angiogenesis-mediated diseases” (Indiana University Research and Technology Corporation, priority 2013, dated 2020)
“Also recorded” adds a separate entry of the source. Read-outs that look alike come from different tables or passages of the source.

Assays:
[1] = tested on: 92-1 uveal melanoma cells; assay: ALAMARBLUE proliferation assay in 92-1 uveal melanoma cells; type: cell-based; settings: for GI50: 50% growth inhibitory concentration, 48 hours, alamarBlue
Experimental: (§1) For proliferation assays, cells (2500 per well) were seeded in a 96-well clear bottom black polystyrene plate in a total volume of 100 μL. HUVECs and HRECs were grown in EGM-2 and CSC+ media respectively, while 92-1 and Y79 cells were maintained in RPMI+10% FBS, penicillin/streptomycin and RB medium (IMDM+10% FBS+penicillin/streptomycin+10 μg/mL insulin+55 μM β-mercaptoethanol) respectively. After 24 hours of incubation of the plate at 37° C., the compounds were dissolved in DMSO and added in the concentration range of 500 μM to 0.5 nM. The plate was then incubated at 37° C. and 5% CO2 conditions for 48 hours before adding 11.1 μL of alamar blue reagent for each well. Four hours after the addition of ALAMARBLUE® reagent, fluorescence readings with excitation and emission wavelengths of 560 nm and 590 nm respectively were taken and the data was analyzed in GraphPad Prism software. The dose response curves were generated and the GI50 values were calculated using the equation: Y=100/(1+10^(X−Log GI50)) (Table 1).

[2] = tested on: HRECs; assay: Matrigel tube formation by HRECs; type: cell-based, human; settings: for tube formation ability of HRECs: compared to DMSO control, concentration not given
Experimental: Matrigel assays were performed as described in Ponce (2001) In vitro matrigel angiogenesis assays, Methods Mol Med 46: 205-209, with slight modifications for the use of HRECs. Briefly, HRECs were starved overnight at 0.5% FBS in EBM-2 and plated on a 96-well plate at a density of 7,500 cells/well over 50 μL of Matrigel high concentration basement membrane. SH-11052 (2) was added at the indicated concentrations in EBM-2+1% FBS. Cells were observed every 2 hours by bright field microscopy at 40× magnification for tube formation. Closed units (polygons) were manually counted at 8 hours post plating and numbers normalized to the DMSO control. Assays were performed in triplicate.
For determining the effect of analog compound SH-11037 (6c) on tube formation, HRECs were plated in 100 μL of EGM-2 containing SH-11037 (6c) (0 nM, 50 nM and 200 nM) dissolved in DMSO in 96-well MatriGel-coated plates for one hour. Wells were photographed after 8 hours and number of polygons (enclosed shapes bordered by tubes) manually counted and expressed as a percentage of the DMSO-only control.

[3] = tested on: HUVECs; assay: ALAMARBLUE proliferation assay in HUVECs; type: cell-based, human; settings: for GI50: 50% growth inhibitory concentration, alamarBlue
Experimental: (§2) Particularly, in a 96-well clear bottom black plate, cells (2,500 cells per well) were seeded in a total volume of 100 μL EGM-2. After 24 hours of incubation of the plate at 37° C. and 5% CO2, a DMSO solution of synthetic cremastranone (1) or SH-11052 (2) was added in the concentration range of 0.5 nM to 500 μM (final DMSO concentration=1%). The plate was then further incubated for 48 hours before adding 11.1 μL of ALAMARBLUE® reagent to each well. Four hours after the addition of ALAMARBLUE®, fluorescence readings with excitation and emission wavelengths of 560 nm and 590 nm, respectively, were taken and the data were analyzed in GraphPad Prism software (v. 6.0). Dose response curves were generated and the GI50 values were calculated using the following equation: Y=100/(1+10^(X−Log GI50)).
as §1

[4] = tested on: HRECs; assay: Apoptosis of HRECs by cleaved caspase-3 staining; type: cell-based, human
Experimental: Further, cells (25,000 per coverslip) were seeded onto coverslips coated with Attachment Factor (Cell Systems, Kirkland, Wash., USA) and incubated at 37° C. and 5% CO2 in EGM-2 until ˜80% confluence was achieved. The cells were then incubated for 4 hours with the indicated concentrations of SH-11052 (2). Staurosporine (SP; 1 μM) was used as a positive control. After the incubation, the cells were fixed in 4% paraformaldehyde for 20 minutes at room temperature followed by three quick washes in Tris buffered saline pH 7.4 (TBS). The cells were permeabilized by incubating with 0.5% Triton X-100 for 10 minutes and then blocked in 10% block solution (DAKO, Glostrup, Denmark) in TBS plus 1% bovine serum albumin (BSA) for 1 hour. The cells were then incubated with cleaved caspase-3 (D175) antibody (1:200 dilution) overnight at 4° C. Dylight 555 conjugated goat anti-rabbit secondary antibody (1:400) was used to probe the cleaved caspase-3 antibody. The coverslips were mounted using Vectashield mounting medium containing DAPI (Vector Labs, Burlingame, Calif., USA) for nuclear staining. The cells were imaged using an LSM 700 confocal microscope (Zeiss, Thornwood, N.Y., USA).

[5] = tested on: HRECs; assay: ALAMARBLUE proliferation assay in HRECs; type: cell-based, human; settings: for GI50: Homo sapiens, HREC; for in vitro anti-proliferative activity in HRECs: result in words, FIGS. 6B, 6D, 14
Experimental: as §2, §1

[6] = 50% growth inhibitory concentration, 48 hours, alamarBlue, read-out: GI50 HREC

SMILES | GI50 [1] [µM] | tube formation ability of HRECs at 140 μM ([2]; 140 μM, 8 hours) | tube formation ability of HRECs ([2]; listed as SH-11052 (2)) | tube formation of HRECs at the GI50 value ([2]; compound at its GI50 value, 8 hours) | GI50 ([3]; Homo sapiens, HUVEC, 48 h) [µM] | in vitro anti-proliferative activity in HUVECs ([3]; result in words, FIGS. 6A, 6C) | apoptosis of HRECs (cleaved caspase-3 staining) ([4]; 100 μM, 4 hours) | GI50 [5, 6] [µM] | in vitro anti-proliferative activity in HRECs [5] | toxicity to a uveal melanoma cell line ([1]; result in words) | block of HREC tube formation ([2]; 500 nM, polygons vs DMSO-only control) [%] | tube formation ability of HRECs [2] | GI50 ([3]; 48 hours, listed as 6c (SH-11037), read-out: GI50 HUVEC) [µM] | apoptosis of HRECs ([4]; concentration not given, FIGS. 16A-16B, listed as SH-11037 (6c)) | GI50 ([5]; text of Example 15, FIG. 14, read-out: HREC GI50) [µM]
COc1ccc(CC2COc3cc(OC)c(O)c(O)c3C2=O)cc1O (single isomer, unassigned) [Compound 2] | 6 | completely abolished | inhibited tube formation; also recorded: significant reduction in their tube formation ability | significant reduction in tube formation | 18 | demonstrated in vitro anti-proliferative activity | negligible apoptosis | 43 | demonstrated in vitro anti-proliferative activity |  |  |  |  |  | 
COc1ccc(CC2COc3cc(OC)c(OC)c(OC)c3C2=O)cc1OC(=O)[C@H](Cc1ccccc1)NC(=O)OC(C)(C)C (stereo partly drawn) [Compound 6c, (2S)-2-methoxy-5-((5,6,7-trimethoxy-4-oxochroman-3-yl)methyl)phenyl 2-((tert-butoxycarbonyl)amino)-3-phenylpropanoate] | 400 |  |  |  | 1 |  |  | 0.087 | inhibition of proliferation | non-toxic | 88 | inhibited | 0.746 | did not cause apoptosis; also recorded: did not promote apoptosis | 0.15
